Test results reported in US5629285A, “Inhibitors of TNF-α secretion” (Immunex Corporation, priority 1996, dated 1997).

Legend:
serum TNF-α [1] = test: In vivo inhibition of TACE: LPS-induced serum TNF levels, 500 μg compound s.c.; design: species or system Balb/c mice; details: for Serum TNF-α level: 500 μg s.c. with 400 μg LPS i.v., serum 2 hours after LPS, pooled from two mice, Saline/DMSO control 157
Description: Female Balb/c mice (18-20 g) were injected i.v. with 400 μg of LPS. Simultaneously, the mice were injected subcutaneously with 500 μg of Compound A or Compound 1 in 0.5 ml of saline containing 0.02% DMSO. Control mice received LPS intravenously and saline/DMSO subcutaneously. Two hours following the LPS injection, serum was obtained and pooled from two mice in each treatment group.
In a similar manner to the procedure described above, mice were injected i.v. with 400 μg LPS. Simultaneously, the mice were injected subcutaneously with 500 μg Compound 1 in 0.5 ml saline containing 0.02% DMSO. Two hours later, serum was obtained and pooled. TNF-α levels were determined by ELISA.

TNF-β secretion = test: TNF-β production by anti-CD3 + PMA stimulated peripheral blood T-cells; type: cell-based, human; design: key to TNF-β (pg/ml), 3 Hrs.: .dagger.: undetectable
Description: [The source words this procedure for another target and reports this target under the same test.] (§1) Human peripheral blood T-cells were purified from peripheral blood mononuclear cells by rosetting with 2-aminoethylisothiouronium bromide hydrobromide-treated sheep erythrocytes. After hypotonic lysis of sheep erythrocytes, monocytes were depleted by plastic adherence for one hour at 37° C. The peripheral […] T-cells were stimulated with anti-CD3 antibody (OKT3) which was immobilized on the culture wells at 10 μg/ml in PBS plus […] of the phorbol ester, PMA. Culture medium comprised RPMI 1640 medium containing 10% fetal bovine serum, 50 U/ml penicillin, and 50 μg/ml streptomycin. The stimulation was performed in the presence or absence of the inhibitor Compound 1 (200 μM), and TNF-α in the medium was assayed by ELISA.

IL-4 = test: Cell surface IL-4 on PMA + ionomycin-stimulated human T-cell clone PL-1 (IL-4R:Fc staining, negative control); type: cell-based; details: + Compound 1 (10 without)
Description: (§2) Detection of cell surface TNF-α was performed by staining with an Fc fusion protein consisting of an Fc portion of a human IgG1 molecule (IgGFc) coupled with an extracellular domain of TNF receptor (p80). Detection of cell surface ligands for 41BB and CD40 was performed by staining with analogous Fc fusion proteins consisting of IgGFc and extracellular domains of 41BB and CD40, respectively. […] TNFR:Fc and IL-4R:Fc fusion proteins are described in EP 0 464 533, incorporated herein by reference. The same general procedures used to construct the TNFR:Fc and IL-4R:Fc fusion molecules were utilized in the construction of the 41BB:Fc and CD40:Fc molecules. Fc fusion proteins bound to their respective cell-surface ligands were then detected with a biotinylated anti-human IgG1 followed by streptavidin-phycoerythrin. The intensity of staining was measured by a FACS (fluorescence activated cell sorting) scan flow cytometer.

CD40L = test: Cell surface CD40L on PMA + ionomycin-stimulated human T-cell clone PL-1 (CD40:Fc staining, FACS); type: cell-based
Description: as §2

cell surface TNF-α = test: Cell surface TNF-α on PMA + ionomycin-stimulated human T-cell clone PL-1 (TNFR:Fc staining, FACS); type: cell-based
Description: as §2

41BBL = test: Cell surface 41BBL on PMA + ionomycin-stimulated human T-cell clone PL-1 (41BB:Fc staining, FACS); type: cell-based
Description: as §2

serum TNF-α [2] = test: In vivo inhibition of TACE: LPS-induced serum TNF levels, 250 μg compound s.c.; design: species or system Balb/c mice; details: 2 hours; for serum TNF-α, mean optical density (OD) in the ELISA: 250 μg s.c. in saline/DMSO with 450 μg LPS i.v., three mice, LPS + Saline + DMSO 0.268 ± 0.040, background OD 0.162±0.003; for effect on serum TNF-α levels in LPS-stimulated mice: 250 μg s.c., 450 μg LPS i.v.
Description: Female Balb/c mice (18-20 g) were injected i.v. with 450 μg of LPS. Simultaneously, the mice were injected subcutaneously with 250 μg of Compound A or Compound 1 in 0.25 ml of saline containing 0.02% DMSO. Control mice received LPS intravenously and saline/DMSO subcutaneously. Two hours following the LPS injection, serum was obtained from three mice in each treatment group. TNF-α levels were determined by ELISA. The results are expressed as the mean optical density (OD) obtained in the ELISA from each treatment group, and are shown in Table V. The background OD of the control sample was 0.162±0.003.

IFN-γ secretion = test: IFN-γ production by anti-CD3 + PMA stimulated peripheral blood T-cells; type: cell-based, human
Description: [The source words this procedure for another target and reports this target under the same test.] as §1

TNF-α secretion = test: Inhibition of TNF-α release by anti-CD3 + PMA stimulated peripheral blood T-cells (ELISA); type: cell-based, human; design: key to TNF-α (pg/ml), 3 Hrs.: .dagger.: undetectable
Description: as §1

purified TACE = purified TACE (Homo sapiens, UniProt P78536); test: Serum stability in normal mouse serum, read out as inhibitory efficacy against purified TACE; type: in vitro ADME; details: 50 μM in normal mouse serum, 37° C., after 40 minutes
purified TACE, sequence (P78536 215-824): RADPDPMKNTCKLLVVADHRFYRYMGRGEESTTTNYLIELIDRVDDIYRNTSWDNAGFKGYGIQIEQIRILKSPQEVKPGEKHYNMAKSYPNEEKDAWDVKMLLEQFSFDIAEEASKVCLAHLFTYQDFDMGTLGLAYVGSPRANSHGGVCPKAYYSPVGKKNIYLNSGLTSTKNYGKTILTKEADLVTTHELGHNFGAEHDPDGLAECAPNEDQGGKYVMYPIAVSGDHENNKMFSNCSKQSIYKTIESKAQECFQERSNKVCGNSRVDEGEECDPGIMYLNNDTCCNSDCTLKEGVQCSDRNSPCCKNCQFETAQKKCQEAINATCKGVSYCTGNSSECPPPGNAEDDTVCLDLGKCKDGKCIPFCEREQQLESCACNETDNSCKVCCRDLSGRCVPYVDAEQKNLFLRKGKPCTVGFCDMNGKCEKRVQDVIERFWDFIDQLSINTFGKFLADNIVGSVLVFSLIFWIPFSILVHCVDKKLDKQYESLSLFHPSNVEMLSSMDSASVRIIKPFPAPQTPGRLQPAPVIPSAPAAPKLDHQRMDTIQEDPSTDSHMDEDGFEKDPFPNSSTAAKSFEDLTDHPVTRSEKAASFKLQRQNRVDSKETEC
Description: Each of Compound 1 and Compound A was diluted to 50 μM in normal mouse serum and incubated at 37° C. At various times, aliquots were withdrawn, diluted 100-fold into ice-cold PBS, and tested for inhibitory, efficacy against purified TACE.

[3] = with Compound 1 200 μM, 24 Hrs.
[4] = with Compound 1 200 μM, 48 Hrs.

Compound: CC(C)CC(CC(=O)NO)C(=O)N[C@@H](Cc1ccc2ccccc2c1)C(=O)N[C@@H](C)C(=O)NCCN (stereo partly drawn) [Compound 1, N-{D,L-2-(hydroxyaminocarbonyl)methyl-4-methylpentanoyl}-L-3-(2'-naphthyl) alanyl-L-alanine, 2-aminoethyl amide]
- Serum TNF-α level (serum TNF-α [1]): undetectable
- reduction of serum TNF-α levels in a murine model of LPS-induced sepsis syndrome (serum TNF-α [1]; 25 mg/kg, from Tables III and IV): at least 80%
- LPS-induced serum TNF level (serum TNF-α [1]; Experiment No. 1, 500 μg s.c., 400 μg LPS i.v., 2 hours, LPS only 1696, LPS + Saline 1268): 301 pg/mL
- LPS-induced serum TNF level (serum TNF-α [1]; Experiment No. 2, 500 μg s.c., 400 μg LPS i.v., 2 hours, LPS only 2527, LPS + Saline 1768): 269 pg/mL
- LPS-induced serum TNF level (serum TNF-α [1]; Experiment No. 3, 500 μg s.c., 400 μg LPS i.v., 2 hours, LPS only 1833, LPS + Saline 1732): 281 pg/mL
- reduction of serum TNF-α levels as compared to LPS only (serum TNF-α [1]; experiment 1, 500 μg s.c.): 82%
- reduction of serum TNF-α levels as compared to LPS+saline (serum TNF-α [1]; experiment 1, 500 μg s.c.): 76%
- reduction of serum TNF-α levels as compared to LPS only (serum TNF-α [1]; experiment 2, 500 μg s.c.): 89%
- reduction of serum TNF-α levels as compared to LPS+saline (serum TNF-α [1]; experiment 2, 500 μg s.c.): 85%
- reduction of serum TNF-α levels as compared to LPS only (serum TNF-α [1]; experiment 3, 500 μg s.c.): 85%
- reduction of serum TNF-α levels as compared to LPS+saline (serum TNF-α [1]; experiment 3, 500 μg s.c.): 84%
- overall reduction of serum TNF-α levels as compared to LPS only (serum TNF-α [1]; experiments 1-3, 500 μg s.c.): 85.4±2.98%
- inhibitory effect on the release of TNF-β (TNF-β secretion; 200 μM, 24 and 48 hours): no inhibitory effect
- TNF-β (pg/ml), 3 Hrs. (TNF-β secretion; with Compound 1 200 μM, 3 Hrs.): .dagger.
- TNF-β (pg/ml), 24 Hrs. (TNF-β secretion; [3]): 160 pg/mL
- TNF-β (pg/ml), 48 Hrs. (TNF-β secretion; [4]): 1050 pg/mL
- cell surface IL-4 (MFI) (IL-4; 4h after stimulation): 10 MFI, arbitrary units
- cell surface IL-4 (MFI) (IL-4; 18h after stimulation): 10 MFI, arbitrary units
- cell surface CD40L (MFI) (CD40L; 4h after stimulation, + Compound 1 (107 without)): 107 MFI, arbitrary units
- cell surface CD40L (MFI) (CD40L; 18h after stimulation, + Compound 1 (19 without)): 46 MFI, arbitrary units
- enhancement of CD40:Fc binding (CD40L; 18 hours of stimulation): approximately 2 fold
- increase on CD40:Fc binding (CD40L; four hours of stimulation): no increase
- cell surface TNF-α (MFI) (cell surface TNF-α; 4h after stimulation, + Compound 1 (83 without)): 3040 MFI, arbitrary units
- cell surface TNF-α (MFI) (cell surface TNF-α; 18h after stimulation, + Compound 1 (7 without)): 616 MFI, arbitrary units
- increase in TNFR:Fc binding (cell surface TNF-α; 18 hours of stimulation, presence vs absence of Compound 1): 100 fold
- cell surface 41BBL (MFI) (41BBL; 4h after stimulation, + Compound 1 (428 without)): 344 MFI, arbitrary units
- cell surface 41BBL (MFI) (41BBL; 18h after stimulation, + Compound 1 (5 without)): 9 MFI, arbitrary units
- enhancement of 41BB:Fc binding (41BBL; 18 hours of stimulation): approximately 2 fold
- increase on 41BB:Fc binding (41BBL; four hours of stimulation): no increase
- serum TNF-α, mean optical density (OD) in the ELISA (serum TNF-α [2]): 0.147 ± 0.004 OD
- effect on serum TNF-α levels in LPS-stimulated mice (serum TNF-α [2]): complete inhibition
- inhibitory effect on the release of interferon-γ (IFN-γ secretion; 200 μM, 24 and 48 hours): no inhibitory effect
- IFN-γ (ELISA OD), 3 Hrs. (IFN-γ secretion; with Compound 1 200 μM, 3 Hrs.): 0.2 ELISA OD
- IFN-γ (ELISA OD), 24 Hrs. (IFN-γ secretion; [3]): 0.9 ELISA OD
- IFN-γ (ELISA OD), 48 Hrs. (IFN-γ secretion; [4]): 1.08 ELISA OD
- inhibition of TNF-α release (TNF-α secretion; 200 μM, 48 hours): 63%
- TNF-α in the medium (TNF-α secretion; 200 μM, after 3 hours, 100 pg/ml without compound): no detectable
- TNF-α (pg/ml), 3 Hrs. (TNF-α secretion; with Compound 1 200 μM, medium of stimulated peripheral blood T cells, 3 Hrs.): .dagger.
- TNF-α (pg/ml), 24 Hrs. (TNF-α secretion; with Compound 1 200 μM, medium of stimulated peripheral blood T cells, 24 Hrs.): 100 pg/mL
- TNF-α (pg/ml), 48 Hrs. (TNF-α secretion; with Compound 1 200 μM, medium of stimulated peripheral blood T cells, 48 Hrs.): 300 pg/mL
- decrease in inhibitory effect against purified TACE, as loss in concentration of the compound (purified TACE): no decrease

Compound: CC(C)CC(CC(=O)NO)C(=O)N[C@@H](Cc1ccc2ccccc2c1)C(=O)N[C@@H](C)C(N)=O (stereo partly drawn) [Compound A, N-{D,L-2-(hydroxyaminocarbonyl)methyl-4-methylpentanoyl}L-3-(2'naphthyl)-a lanyl-L-alanine amide, reference compound]
- Serum TNF-α level (serum TNF-α [1]): 65 pg/mL
- reduction of serum TNF-α levels as compared to the saline/DMSO control (serum TNF-α [1]; 500 μg s.c., 400 μg LPS i.v., 2 hours): approximately 60%
- serum TNF-α, mean optical density (OD) in the ELISA (serum TNF-α [2]): 0.299 ± 0.023 OD
- effect on serum TNF-α levels in LPS-stimulated mice (serum TNF-α [2]): no effect
- decrease in inhibitory effect against purified TACE, as loss in concentration of the compound (purified TACE): 3-4 fold
